MIC data for seven compounds are collected here from ChEMBL document CHEMBL1795284, “Total synthesis of racemic and (R) and (S)-4-methoxyalkanoic acids and their antifungal activity” (2011).

The structures appear in SMILES notation. ≈ marks a conversion by molar mass, not a printed value.

Type in all cases: functional
Experiment [1] relates to Candida albicans. The experiment in a line: Antifungal activity against Candida albicans MTCC 227 after 18 hrs by microtiter broth dilution method. Conditions: MTCC 227, 18 h. (In general: In broth dilution the organism is exposed to a series of concentrations in liquid medium.)
The subject of experiment [2] is Candida albicans. The experiment in a line: Antifungal activity against Candida albicans MTCC 3017 after 18 hrs by microtiter broth dilution method. Particulars: MTCC 3017, 18 h.
In the next experiment the test system is Pichia kudriavzevii. The experiment in a line: Antifungal activity against Issatchenkia orientalis MTCC 3020 after 18 hrs by microtiter broth dilution method. Conditions: MTCC 3020, 18 h.
For a further experiment, the system named is Aspergillus niger. Put plainly: Antifungal activity against Aspergillus niger MTCC 281 after 18 hrs by microtiter broth dilution method. Conditions: MTCC 281, 18 h.
The subject of the next experiment is Candida parapsilosis. The experiment in a line: Antifungal activity against Candida parapsilosis MTCC 1744 after 18 hrs by microtiter broth dilution method. Conditions: Lodderomyces parapsilosis, MTCC 1744, 18 h.
Experiment [3] has as its system Candida albicans. The experiment in a line: Antifungal activity against Candida albicans MTCC 4748 after 18 hrs by microtiter broth dilution method. Conditions: MTCC 4748, 18 h.

A word on the MIC: it is the smallest concentration in the dilution series that meets the test's criterion for growth inhibition. For the compound `CCCCCC[C@H](CCC(=O)O)OC`, the MIC stood at 19 µg/mL (≈ 93.9 µM) against Candida albicans [1]; 312 µg/mL (≈ 1540 µM) against Candida albicans [2]; 19 µg/mL (≈ 93.9 µM) against Pichia kudriavzevii; 19 µg/mL (≈ 93.9 µM) in the experiment on Aspergillus niger; 625 µg/mL (≈ 3090 µM) with Candida parapsilosis; 19 µg/mL (≈ 93.9 µM) against Candida albicans [3].
Take `CCCCCC[C@@H](CCC(=O)O)OC`: the MIC against Candida albicans [1] came to 1250 µg/mL (≈ 6180 µM); in the experiment with Candida albicans [2] it was 156 µg/mL (≈ 771 µM); against Pichia kudriavzevii, 312 µg/mL (≈ 1540 µM); against Aspergillus niger it was 1240 µg/mL (≈ 6120 µM); against Candida parapsilosis it was 156 µg/mL (≈ 771 µM); with Candida albicans [3] it was 39 µg/mL (≈ 193 µM).
Consider `CCCCCCC[C@H](CCC(=O)O)OC`, for which the MIC in the experiment with Candida albicans [1] turned out to be 156 µg/mL (≈ 721 µM); with Candida albicans [2], 1250 µg/mL (≈ 5780 µM); with Pichia kudriavzevii, 312 µg/mL (≈ 1440 µM); against Aspergillus niger, 168 µg/mL (≈ 777 µM); against Candida albicans [3], 78 µg/mL (≈ 361 µM).
On to `CCCCCCC[C@@H](CCC(=O)O)OC`, for which the MIC in the experiment with Candida albicans [1] was 78 µg/mL (≈ 361 µM); against Candida albicans [2], 1250 µg/mL (≈ 5780 µM); with Pichia kudriavzevii, 2500 µg/mL (≈ 11600 µM); against Aspergillus niger, 82 µg/mL (≈ 379 µM); against Candida parapsilosis, 2500 µg/mL (≈ 11600 µM); with Candida albicans [3] it was 156 µg/mL (≈ 721 µM).
In the case of `CCCCCCC(CCC(=O)O)OC` (racemic), the MIC in the experiment on Candida albicans [1] amounted to 625 µg/mL (≈ 3090 µM); against Candida albicans [2], 5010 µg/mL (≈ 24800 µM); in the experiment with Pichia kudriavzevii, 1250 µg/mL (≈ 6180 µM); against Aspergillus niger, 631 µg/mL (≈ 3120 µM); against Candida parapsilosis, 5010 µg/mL (≈ 24800 µM); in the experiment on Candida albicans [3], 156 µg/mL (≈ 771 µM).
Regarding `CCCCCCCC(CCC(=O)O)OC` (racemic), the MIC with Candida albicans [1] came out at 156 µg/mL (≈ 721 µM); in the experiment on Candida albicans [2], 78 µg/mL (≈ 361 µM); in the experiment with Pichia kudriavzevii, 312 µg/mL (≈ 1440 µM); against Aspergillus niger, 164 µg/mL (≈ 758 µM); in the experiment with Candida parapsilosis, 625 µg/mL (≈ 2890 µM); with Candida albicans [3], 19 µg/mL (≈ 87.8 µM).
In the case of `OC(Cn1cncn1)(Cn1cncn1)c1ccc(F)cc1F` [FLUCONAZOLE], the MIC with Candida albicans [1] was 32 µg/mL (≈ 104 µM); in the experiment with Candida albicans [2] it was 64 µg/mL (≈ 209 µM); in the experiment with Pichia kudriavzevii, 128 µg/mL (≈ 418 µM); in the experiment on Aspergillus niger, 34 µg/mL (≈ 111 µM); against Candida parapsilosis, 16 µg/mL (≈ 52.2 µM); against Candida albicans [3], 32 µg/mL (≈ 104 µM).
